The target of this experiment is T1, hyaluronidase (HAase).
T1 construct: gene SPAM1
Put plainly: colorimetric DMAB end-point assay of hyaluronic acid degradation, […] nm. The conditions noted are these: hyaluronic acid substrate (0.7 mg/mL stock), 37 °C, 30 min; positive control. The format is biochemical.

As to `O=C(O)c1cc(=O)c2c(OCC(O)COc3cccc4oc(C(=O)O)cc(=O)c34)cccc2o1` [di-sodium cromoglicate], the IC50 (commonly the concentration that gives 50% inhibition) is 1105 µg/mL.

The values are drawn from article PMC8950663, “Cyanobacteria Secondary Metabolites as Biotechnological Ingredients in Natural Anti-Aging Cosmetics: Potential to Overcome Hyperpigmentation, Loss of Skin Density and UV Radiation-Deleterious Effects” (Marine Drugs, 2022).
